Experimental data as given in patent US20060167276A1, “Clausenamide c5-hydroxyl derivatives and n-substituted derivatives, processes for their preparation, its composition and use” (priority 2002, published 2006).

Legend:
[1] = tested on: C17-2 mouse brain neural stem cells; experiment: Cell proliferation of mouse brain neural stem cells (MTT, OD 490 nm); format: cell-based; conditions: for Result (OD value): MTT at 4th day, OD 490 nm; for Cell proliferation %: control group = 100%
Description: C17-2 mouse brain neural stem cells (C17-2 cells) were continuously cultured in 1640 medium with 10% horse serum and 10% fetal bovine serum at 5% CO2 and 37° C., dissociated to single cell suspension by 0.1% trypsin solution, centrifuged at 1,000 rpm×5 min and rinsed with medium. The cells were seeded in a 96-well plate, 1×10^3 cells per well, 3 well per group, continuously cultured. After 24 hours, the test compounds were added, doses of each of the C5-hydroxyl substituted clausenamides and N-substituted clausenamide derivatives were 0.1 μM, 1 μM and 10 μM respectively. The growth situation of the cells was observed under a microscope, once daily. At the 4th day, media in each well were pipetted, phosphate buffer solution containing MTT was added. 4 Hours later, the fluid was discarded, and a DMSO solution was added. The cells were incubated at 37° C. for 10 min under shaken. OD values on 490 nm of each well were detected. Set the growth rate of the control group as 100%, and the growth rates of each dose were given by comparison with the control group and t-tested.

rat hippocampus = experiment: LTP / synaptic transmission in rat hippocampus (population spike amplitude, dentate gyrus); format: in vivo; conditions: for Relative PS (PSA %): lateral ventricle, prior administration = 100; for effects on synaptic transmission: P<0.05 vs. control, n=5
Source text: Male adult SD Rats (5 per group) were anesthetized with 20% (w/v) urethane carbamate (1.0 g·kg^−1, ip) and fixed in a stereotaxic head holder. According to the reference of Pellegrino stereotaxic spectrum of rat, recording electrodes (stainless steel needle of 0.2 mm diameter were insulted except for 0.2 mm tip) were placed in the dentate gyrus granule cell layer. The stimulating electrodes (two stainless steel needles of 0.15 mm diameter coated with Teflon except for the 0.2 mm tip, and the distance between two needles was 0.5 mm) were planted between the fibre of perforant path (PP) in rat. Continuous pulse was provided by electronic stimulator, and delivered to PP through stimulus isolator and stimulating electrodes. Electrode depth was then adjusted until a typical excitatory postsynaptic potential (EPSP) was observed. Electric current was magnified by amplifier and collected by computer, then processed by DataWave software. The stimulus intensity was adjusted to produce population spike (PS) with a slope that was ≈50% of the maximum. Single-pulse test stimuli were at an interval of 30 sec during the experiment. Population spike amplitude (PSA) was recorded and the relatively percent of PSA was calculated according to the formula (PSA/basic value).

Structure (SMILES)	Result (OD value) ([1]; dose 10^−5 M)	Cell proliferation % ([1]; dose 10^−5 M)	Result (OD value) ([1]; dose 10^−6 M)	Cell proliferation % ([1]; dose 10^−6 M)	Result (OD value) ([1]; dose 10^−7 M)	Cell proliferation % ([1]; dose 10^−7 M)	Relative PS (PSA %) (rat hippocampus; 15 min after administration)	Relative PS (PSA %) (rat hippocampus; 30 min after administration)	Relative PS (PSA %) (rat hippocampus; 45 min after administration)	Relative PS (PSA %) (rat hippocampus; 60 min after administration)	effects on synaptic transmission (rat hippocampus)	effects on cell proliferation of mouse brain neural stem cells (conclusion) [1]	promotion effects on cell proliferation of mouse brain neural stem cells ([1]; at doses of 0.1 μM and 1 μM)
NC(=O)CN1C(=O)C(O)C(c2ccccc2)C1C(O)c1ccccc1 (racemic) [(±)III1, N-(aminocarbonyl-methylene)-norclausenamide]	0.104 ± 0.009	75.91%	0.205 ± 0.006	149.64%	0.240 ± 0.017	175.18%	85.24 ± 17.41%	79.82 ± 22.33%	96.00 ± 19.78%	117.37 ± 13.49%			
O=C(O)CN1C(=O)C(O)C(c2ccccc2)C1C(O)c1ccccc1 (racemic) [(±)III2]	0.100 ± 0.018	72.99%	0.175 ± 0.006	127.74%	0.218 ± 0.012	159.12%	99.41 ± 9.27%	117.34 ± 14.74%	140.2 ± 10.96 %	153.36 ± 13.23 %			
CC(=O)OCN1C(=O)C(O)C(c2ccccc2)C1C(O)c1ccccc1 (racemic) [(±)III3, N-acetoxymethylene-norclausenamide]											significantly upstanding effects		
Cc1cccc(C)c1NC(=O)CN1C(=O)C(O)C(c2ccccc2)C1C(O)c1ccccc1 (racemic) [(±)III5]	0.171 ± 0.035	124.82%	0.227 ± 0.011	165.69%	0.304 ± 0.051	221.90%	87.51 ± 19.57%	97.43 ± 32.15%	111.47 ± 46.02%	137.15 ± 57.17%		significant effects	significant promotion effects
O=C1C(O)C(c2ccccc2)C(C(O)c2ccccc2)N1Cc1ccccc1 (racemic) [(±)III8]	0.096 ± 0.022	70.07%	0.144 ± 0.038	105.11%	0.221 ± 0.043	161.31%	67.75 ± 26.84%	68.48 ± 21.15%	79.25 ± 16.62%	98.97 ± 14.26%			
COc1ccc(CN2C(=O)C(O)C(c3ccccc3)C2C(O)c2ccccc2)cc1 (racemic) [(±)III9]	0.120 ± 0.027	87.59%	0.138 ± 0.012	100.73%	0.212 ± 0.011	154.74%	115.6 ± 17.94%	107.18 ± 20.09%	103.77 ± 15.36%	112.72 ± 8.95%			
CN1C(=O)C(O)C(c2ccccc2)C1=Cc1ccccc1 (single isomer, unassigned) [(−)Δ^5,6-I, (−)-Δ^5,6-clausenamide]	0.076 ± 0.016	55.47%	0.165 ± 0.011	120.44%	0.246 ± 0.005	179.56%	123.37 ± 14.80%	138.79 ± 10.94 %	158.89 ± 23.04 %	181.50 ± 35.88 %	significantly upstanding effects		
